Assay results from US20240102994A1, “Method to Evaluate the Capability of Compounds on the Trapping of Proteins” (Eisbach Bio GmbH, priority 2020, published 2024).
Entries after “also recorded” stand apart in the source; their conditions may differ.

How the values were obtained:
GFP-PARP2 = target: T1, GFP-PARP2 (Homo sapiens, UniProt Q9UGN5); test: Live-cell protein trapping assay: GFP-PARP2 at laser micro-irradiation sites; assay type: cell-based; conditions: U2OS cells
T1 construct: expressed in transfected cells; host or cells: U2OS
Excerpt: The disclosed method is used to analyze protein trapping induced by compounds. Live-cell imaging allows monitoring of the accumulation of at least one protein, e.g. which is detectably labelled, e.g. fluorophore-tagged, at the induced DNA lesions over time. Time0 (t0) hereby describes the timepoint before induction of DNA damage by irradiation. Thus, the relative enrichment of the at least one protein at DNA lesions within the imaged time frame (from t0 to tEND) can be quantified. This allows to the analysis of the recruitment and retention (protein trapping) kinetics of the at least one protein, e.g. which is detectably labelled, e.g. fluorophore-tagged, at DNA lesions. Suitably, as a first step the accumulation and/or residence time of a protein, e.g. which is detectably labelled, e.g. fluorophore-tagged, is measured in the absence of a test compound (control). The optimal imaging time is hereby determined by the time in which the majority of the protein has released from the damage site, indicated by the decrease of signal, e.g. fluorescent signal, at the DNA lesion (see FIG. 2A). Subsequently, the accumulation and/or residence time of the protein, e.g. which is detectably labelled, e.g. fluorophore-tagged, may be determined in the presence of at least one test compound. […] Using this method, we examined the trapping of GFP-tagged ALC1 in the presence of ALCi-1 compared to a DMSO control.
Eukaryotic cells were seeded onto 4/8-well Nunc Lab-Tek chambers (Thermo Fisher Scientific) in the corresponding cell culture medium, cultured over night at 37° C. and transfected with fluorophore-tagged protein plasmids using XtremeGENE HP DNA transfection reagent (Sigma). […]
The drug- and control-master-mixes were prepared in Leibovitz's L-15 media (+10% FBS). […] Therefore, the optimal imaging time for the protein of interest was determined by investigation of the trapping and release under control conditions (no treatment). […] Subsequently, the fluorophore-tagged protein was measured in the presence of at least one compound. […]

PARP1-GFP = PARP1-GFP (Homo sapiens, UniProt P09874); conditions: wild-type U2OS cells, 10 μM for 1 h, 355 nm laser, 30 minutes, compared to DMSO
Excerpt: The disclosed method is used to analyze protein trapping induced by compounds. Live-cell imaging allows monitoring of the accumulation of at least one protein, e.g. which is detectably labelled, e.g. fluorophore-tagged, at the induced DNA lesions over time. Time0 (t0) hereby describes the timepoint before induction of DNA damage by irradiation. Thus, the relative enrichment of the at least one protein at DNA lesions within the imaged time frame (from t0 to tEND) can be quantified. This allows to the analysis of the recruitment and retention (protein trapping) kinetics of the at least one protein, e.g. which is detectably labelled, e.g. fluorophore-tagged, at DNA lesions. Suitably, as a first step the accumulation and/or residence time of a protein, e.g. which is detectably labelled, e.g. fluorophore-tagged, is measured in the absence of a test compound (control). The optimal imaging time is hereby determined by the time in which the majority of the protein has released from the damage site, indicated by the decrease of signal, e.g. fluorescent signal, at the DNA lesion (see FIG. 2A). Subsequently, the accumulation and/or residence time of the protein, e.g. which is detectably labelled, e.g. fluorophore-tagged, may be determined in the presence of at least one test compound. […]

T1 sequence (Q9UGN5 whole entry): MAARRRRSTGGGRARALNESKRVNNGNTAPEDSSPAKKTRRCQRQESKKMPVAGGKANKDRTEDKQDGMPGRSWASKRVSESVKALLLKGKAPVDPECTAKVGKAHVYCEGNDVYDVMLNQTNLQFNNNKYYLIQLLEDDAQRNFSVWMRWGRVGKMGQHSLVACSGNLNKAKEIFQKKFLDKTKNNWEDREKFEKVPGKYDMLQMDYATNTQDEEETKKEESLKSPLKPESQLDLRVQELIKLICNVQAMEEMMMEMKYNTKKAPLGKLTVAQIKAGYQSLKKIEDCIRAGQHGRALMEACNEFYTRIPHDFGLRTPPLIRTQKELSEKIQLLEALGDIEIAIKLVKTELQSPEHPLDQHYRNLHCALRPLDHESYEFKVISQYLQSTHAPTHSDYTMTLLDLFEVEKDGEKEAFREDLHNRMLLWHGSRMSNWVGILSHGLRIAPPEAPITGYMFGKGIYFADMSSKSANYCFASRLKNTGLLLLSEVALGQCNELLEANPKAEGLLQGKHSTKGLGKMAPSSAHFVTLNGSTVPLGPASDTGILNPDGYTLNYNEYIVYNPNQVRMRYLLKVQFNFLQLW
Chain of PARP1-GFP (P09874 whole entry): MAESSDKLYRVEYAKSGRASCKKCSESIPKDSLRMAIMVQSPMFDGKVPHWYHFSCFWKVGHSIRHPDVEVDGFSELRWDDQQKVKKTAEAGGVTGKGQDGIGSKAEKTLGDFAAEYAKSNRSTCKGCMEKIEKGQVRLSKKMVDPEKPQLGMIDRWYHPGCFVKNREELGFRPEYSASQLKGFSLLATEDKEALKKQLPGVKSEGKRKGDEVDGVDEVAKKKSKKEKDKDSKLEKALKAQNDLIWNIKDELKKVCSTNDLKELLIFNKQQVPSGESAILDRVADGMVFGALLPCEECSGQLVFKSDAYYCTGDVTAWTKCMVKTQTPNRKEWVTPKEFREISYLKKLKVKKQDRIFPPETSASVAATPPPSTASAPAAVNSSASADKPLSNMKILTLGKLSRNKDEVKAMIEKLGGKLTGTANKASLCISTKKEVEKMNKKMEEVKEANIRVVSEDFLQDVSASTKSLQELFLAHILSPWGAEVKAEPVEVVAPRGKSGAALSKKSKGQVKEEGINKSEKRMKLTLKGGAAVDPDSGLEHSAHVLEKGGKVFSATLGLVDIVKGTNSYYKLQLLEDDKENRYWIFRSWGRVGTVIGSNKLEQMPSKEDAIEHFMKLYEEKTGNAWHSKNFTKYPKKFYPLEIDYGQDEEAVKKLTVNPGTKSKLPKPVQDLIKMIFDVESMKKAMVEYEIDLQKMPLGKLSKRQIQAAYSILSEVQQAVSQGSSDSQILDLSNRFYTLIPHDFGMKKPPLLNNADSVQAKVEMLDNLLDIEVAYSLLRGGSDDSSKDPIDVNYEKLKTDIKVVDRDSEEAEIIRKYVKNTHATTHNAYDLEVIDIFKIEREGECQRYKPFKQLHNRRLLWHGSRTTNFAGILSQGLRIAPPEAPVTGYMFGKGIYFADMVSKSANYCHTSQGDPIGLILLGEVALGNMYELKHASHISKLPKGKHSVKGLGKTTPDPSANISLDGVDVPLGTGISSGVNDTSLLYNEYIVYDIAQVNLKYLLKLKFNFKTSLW

| PARP2 trapping at DNA lesions (GFP-PARP2; veliparib, compared to DMSO-only control) | Structure (SMILES) | retention of PARP2 at induced damage sites (PARP trapping) (GFP-PARP2; talazoparib 100 nM, 10% 355 nm laser, 15 minutes, vs absence of PARPi) | recruitment of PARP2 to the damage site (GFP-PARP2; veliparib 10 μM, 10% 355 nm laser, 15 minutes, vs absence of PARPi) | retention of PARP1 at DNA damage sites (PARP1-trapping) (PARP1-GFP) |
| --- | --- | --- | --- | --- |
| – | Cn1ncnc1[C@H]1c2n[nH]c(=O)c3cc(F)cc(c23)N[C@@H]1c1ccc(F)cc1 [talazoparib] | enhanced retention of PARP2 | – | – |
| only weak trapping | C[C@]1(c2nc3c(C(N)=O)cccc3[nH]2)CCCN1 [veliparib] | – | less recruitment of PARP2; also recorded: overall less PARP2 recruitment | enhanced retention of PARP1 |
